Data published in patent US20060148767A1, “Use of acyl salicylates as heat shock inducers” (priority 2001, published 2006).

What was measured:
[1] = test system: human Hsp70 promoter; test: Heat shock induction in L 929 fibroblast cells, luciferase under human Hsp70 promoter; assay type: cell-based, mouse; settings: for increase of heat shock response with respect to the control: 37° C.; for increase of heat shock response compared with the control: 40° C.
Experimental: Acetyl, propanoyl, n-butanoyl, n-octanoyl and n-decanoyl salicylates were tested for their ability to induce heat shock response in an in vitro system using L 929 fibroblast cells, in which the enzyme luciferase was cloned under the transcriptional control of the human Hsp70 promoter (Proc. Natl. Acad. Sci USA, 92, 7207-7211, 1995). The effects of the mentioned compounds on heat shock induction at different temperatures have been compared using Bimoclomol as reference compound (Table 1). As reported in Table 1, propanoyl salicylate and Bimoclomol at 37° C. increase the heat shock response by 33% with respect to the control, while n-butanoyl, n-octanoyl and n-decanoyl salicylates increase it up to 67%. […] (Nature Medicine, 3, 1150-1154, 1997).

[2] = test system: heat shock response; settings: cited from earlier work
[3] = test system: Hsp70; test: Heat shock response in NHEK cells, Hsp70 ELISA; assay type: cell-based; settings: NHEK keratinocytes, 18 hours at 37° C., no heat shock
Experimental: Acetyl, propanoyl, n-butanoyl, n-octanoyl and n-decanoyl salicylates, synthesized according to Example 1 or 2, were tested for their ability to induce heat shock response in an in vitro system using cells NHEK.
NHEK cells, grown at 37° C. to 75% confluence, were treated with different doses of propanoyl, n-butanoyl, n-octanoyl and n-decanoyl salicylates at a concentration range from 0 to 50 μM, using 50 mM sorbitol and heat shock at 42° C. as positive controls. After incubation for 18 hours at 37° C., Hsp70 levels were quantitatively determined on keratinocytes using the ELISA kit by StressGen.

[4] = Stability as crystalline compound and in solution; assay type: physicochemical
Experimental: The mixture was stirred at room temperature for 30 minutes and kept at 70° C. for 2 hours. The reaction mixture was poured into ice water and the precipitated product was filtered in vacuo, dried and recrystallized tree times from toluene or ethanol as solvent. […] The ^1H-NMR spectrum of the synthesized propanoyl salicylate is consistent with the proposed structure.

[5] = test system: UV-B induced erythema; test: Prevention and repair of UV-B induced skin damage; assay type: in vivo; settings: guinea pigs, topical; untreated: erythema observed four hours after irradiation
Experimental: The effect of acyl-salicylates in the prevention and repair of UV-B induced skin damage was determined with an in vivo test, on female Hartley albino guinea pigs, using the propanoyl salicylate as model compound. The animals, that weighed about 400 g, were shaved with a commercial cream 24 h before irradiation. Propanoyl salicylate was applied 120 minutes before irradiation on the head distal area, on a 5 cm^2 rectangular area at a dose of about 2 mg/cm^2, the head proximal area serving as control site. A bank of four lamps providing a mean irradiation of about 1.2 mW/cm^2 at 310 nm was used as UV-B source. Following light exposure, sites were occluded with a cotton pad. The erythema following UV-B exposure was evaluated according to the following scale: not irradiated, 0, pale pink; slight erythema, 1, pink; moderate erythema, 2, intense pink; severe erythema, 3, intense pink, edema; ulcerated erythema, 4, intense pink, ulceration. One MED (minimal erythemal dose to obtain an erythema grade 1) for untreated animals corresponds to 5 minutes exposure at 400 mJ/cm^2. The protection effect was calculated as the ratio of protected skin MED to unprotected skin MED.

[6] = target: heat shock transcription factor (HSF) (Homo sapiens, UniProt Q00613); settings: 2-30 mM; cited from earlier work
[7] = temperature stress 37° C., control (None) 0.3
[8] = temperature stress 40° C., control (None) 4.6

Sequence of heat shock transcription factor (HSF) (Q00613 whole entry): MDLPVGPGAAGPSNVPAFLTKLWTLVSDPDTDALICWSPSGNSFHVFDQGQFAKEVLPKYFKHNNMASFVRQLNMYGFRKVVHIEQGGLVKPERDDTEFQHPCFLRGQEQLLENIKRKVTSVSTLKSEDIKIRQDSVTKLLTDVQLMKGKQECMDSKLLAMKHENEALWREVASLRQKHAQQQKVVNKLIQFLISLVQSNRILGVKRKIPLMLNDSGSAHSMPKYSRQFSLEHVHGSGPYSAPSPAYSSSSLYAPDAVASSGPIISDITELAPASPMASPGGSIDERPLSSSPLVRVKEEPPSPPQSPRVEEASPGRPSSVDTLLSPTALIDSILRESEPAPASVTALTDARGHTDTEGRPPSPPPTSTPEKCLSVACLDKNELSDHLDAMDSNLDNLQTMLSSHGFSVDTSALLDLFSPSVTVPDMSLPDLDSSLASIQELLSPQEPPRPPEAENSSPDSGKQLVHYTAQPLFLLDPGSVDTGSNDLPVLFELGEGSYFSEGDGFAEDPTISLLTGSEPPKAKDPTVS

SMILES | increase of heat shock response with respect to the control [1] [%] | increase of heat shock response compared with the control [1] [%] | Luciferase activity [1, 7] [arbitrary units × 10^−5] | Luciferase activity [1, 8] [arbitrary units × 10^−5] | temperature of maximum induction activity [2] [°C] | increase of Hsp70 levels ([3]; 50 μM) | stability [4] | time after UV-B irradiation at which erythema appeared in the treated area [5] [h] | increase of Hsp70 levels ([3]; 5 μM) | heat shock gene transcription [6]
OC(CO/N=C(\Cl)c1cccnc1)CN1CCCCC1 (stereo not shown) [Bimoclomol, reference compound] | 33 | 20 | 0.4 | 5.5 | 43 |  |  |  |  | 
CCCCCCCC(=O)OC(=O)c1ccccc1O [Octanoyl salicylate, n-octanoyl salicylate] |  |  | 0.5 | 6.3 |  | up to 130% |  |  |  | 
CCC(=O)OC(=O)c1ccccc1O [Propanoyl salicylate] | 33 | 107 | 0.4 | 9.5 |  |  | compatible with its use in cosmetic and pharmaceutical formulations | 7 to 10 | up to 89% | 
O=C([O-])c1ccccc1O.[Na+] [sodium salicylate] |  |  |  |  |  |  |  |  |  | does not induce heat shock gene transcription
